In ChEMBL document CHEMBL3526087, “Inhibition of human sterol Δ7-reductase and other postlanosterol enzymes by LK-980, a novel inhibitor of cholesterol synthesis” (Drug Metab Dispos, 2011):

Key:
Cytochrome P450 3A4 = Cytochrome P450 3A4 (Homo sapiens, UniProt P08684); assay: Effect on CYP3A4 in human hepatocytes assessed as nifedipine oxidation activity using nifedipine as substrate at 10 uM; format: ADME, cell-based, Hepatocyte
[1] = molecular target: T1, 7-dehydrocholesterol reductase (Homo sapiens) (UniProt Q9UBM7); assay: Inhibition of DHCR7 activity in human hepatocytes assessed as increase in 7-dehydrocholesterol level per gram of protein by GC-MS analysis (reference value: 16.3 ug); format: cell-based; conditions: Hepatocyte
T1 sequence (whole entry): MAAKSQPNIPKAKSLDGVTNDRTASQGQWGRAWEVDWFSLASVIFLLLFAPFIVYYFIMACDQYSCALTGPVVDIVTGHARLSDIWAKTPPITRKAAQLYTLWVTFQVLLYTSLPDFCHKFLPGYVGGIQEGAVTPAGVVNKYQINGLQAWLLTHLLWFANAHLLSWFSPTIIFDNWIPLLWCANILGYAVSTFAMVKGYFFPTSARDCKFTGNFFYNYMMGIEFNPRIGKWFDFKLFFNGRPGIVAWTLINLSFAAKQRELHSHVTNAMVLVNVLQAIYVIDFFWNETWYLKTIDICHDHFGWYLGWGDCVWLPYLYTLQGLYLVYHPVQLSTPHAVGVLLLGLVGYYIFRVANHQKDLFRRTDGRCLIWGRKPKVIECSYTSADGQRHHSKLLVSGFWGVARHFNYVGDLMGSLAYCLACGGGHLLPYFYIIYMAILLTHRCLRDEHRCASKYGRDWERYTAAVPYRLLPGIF

Hepatocyte = assay: Effect on CYP3A4 mRNA expression in human hepatocytes at 10 uM after 12 to 48 hrs by RT-PCR analysis; format: ADME, cell-based
[2] = molecular target: T2, Delta(14)-sterol reductase TM7SF2 (Homo sapiens) (UniProt O76062); assay: Inhibition of DHCR14 activity in human hepatocytes assessed as increase in FF-MAS level per gram of protein by GC-MS analysis (reference value: 0.7 ug); format: cell-based; conditions: Hepatocyte
T2 sequence (whole entry): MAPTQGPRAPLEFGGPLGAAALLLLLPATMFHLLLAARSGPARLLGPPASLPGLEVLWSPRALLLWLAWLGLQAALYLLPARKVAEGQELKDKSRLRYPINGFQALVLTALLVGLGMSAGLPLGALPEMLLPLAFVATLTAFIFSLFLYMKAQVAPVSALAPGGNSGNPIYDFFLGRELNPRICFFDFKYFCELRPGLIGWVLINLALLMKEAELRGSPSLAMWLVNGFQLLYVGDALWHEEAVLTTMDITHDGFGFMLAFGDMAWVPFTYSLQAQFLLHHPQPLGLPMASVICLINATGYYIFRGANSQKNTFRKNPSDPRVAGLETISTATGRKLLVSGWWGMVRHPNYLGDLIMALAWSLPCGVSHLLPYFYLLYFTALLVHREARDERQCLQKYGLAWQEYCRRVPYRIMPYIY

[3] = molecular target: T3, 3-hydroxy-3-methylglutaryl-coenzyme A reductase (Homo sapiens) (UniProt P04035); assay: Inhibition of HMGCR activity in human hepatocytes assessed as mevalonate formed per mg of protein at 100 uM by GC-MS analysis (reference value: 69 9 pmol/min); format: cell-based; conditions: Hepatocyte
T3 sequence (whole entry): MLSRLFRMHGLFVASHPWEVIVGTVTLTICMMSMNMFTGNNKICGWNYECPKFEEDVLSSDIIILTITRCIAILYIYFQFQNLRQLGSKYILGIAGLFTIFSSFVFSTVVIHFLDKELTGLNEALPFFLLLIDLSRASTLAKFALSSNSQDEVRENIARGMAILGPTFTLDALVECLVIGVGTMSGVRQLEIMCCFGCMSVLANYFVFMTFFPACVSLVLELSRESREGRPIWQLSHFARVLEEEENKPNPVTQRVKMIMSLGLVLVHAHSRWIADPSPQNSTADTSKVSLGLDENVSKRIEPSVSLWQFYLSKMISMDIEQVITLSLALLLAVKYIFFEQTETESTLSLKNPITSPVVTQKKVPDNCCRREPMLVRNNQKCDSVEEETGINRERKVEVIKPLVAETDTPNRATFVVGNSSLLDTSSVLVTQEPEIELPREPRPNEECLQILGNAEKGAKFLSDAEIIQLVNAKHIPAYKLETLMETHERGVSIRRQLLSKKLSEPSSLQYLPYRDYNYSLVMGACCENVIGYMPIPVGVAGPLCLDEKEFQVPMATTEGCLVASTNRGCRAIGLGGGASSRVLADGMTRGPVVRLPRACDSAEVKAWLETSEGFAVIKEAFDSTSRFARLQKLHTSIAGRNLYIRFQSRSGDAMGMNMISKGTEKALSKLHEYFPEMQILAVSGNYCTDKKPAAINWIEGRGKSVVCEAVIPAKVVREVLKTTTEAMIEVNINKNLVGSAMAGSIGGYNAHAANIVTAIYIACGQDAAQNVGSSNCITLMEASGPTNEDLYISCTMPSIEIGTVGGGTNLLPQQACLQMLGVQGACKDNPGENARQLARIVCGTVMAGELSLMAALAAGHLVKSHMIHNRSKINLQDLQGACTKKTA

[4] = molecular target: T4, Delta(24)-sterol reductase (Homo sapiens) (UniProt Q15392); assay: Inhibition of DHCR24 activity in human hepatocytes assessed as increase in desmosterol level per gram of protein by GC-MS analysis (reference value: 5.5 ug); format: cell-based; conditions: Hepatocyte
T4 sequence (whole entry): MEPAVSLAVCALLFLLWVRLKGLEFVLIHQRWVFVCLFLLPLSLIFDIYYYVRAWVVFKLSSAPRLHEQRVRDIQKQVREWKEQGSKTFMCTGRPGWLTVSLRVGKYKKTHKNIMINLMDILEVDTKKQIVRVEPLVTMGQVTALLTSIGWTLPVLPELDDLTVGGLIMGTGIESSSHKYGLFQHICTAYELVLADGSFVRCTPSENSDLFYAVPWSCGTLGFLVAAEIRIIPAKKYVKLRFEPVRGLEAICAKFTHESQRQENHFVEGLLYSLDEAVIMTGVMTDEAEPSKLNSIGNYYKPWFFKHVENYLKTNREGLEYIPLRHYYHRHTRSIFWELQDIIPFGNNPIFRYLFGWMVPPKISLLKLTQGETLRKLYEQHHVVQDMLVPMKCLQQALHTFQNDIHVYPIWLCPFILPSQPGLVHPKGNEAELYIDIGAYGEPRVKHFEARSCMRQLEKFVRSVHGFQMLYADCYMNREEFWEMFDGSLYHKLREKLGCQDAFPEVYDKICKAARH

[5] = molecular target: T5, Lathosterol oxidase (Homo sapiens) (UniProt O75845); assay: Inhibition of SC5DL activity in human hepatocytes assessed as increase in lathosterol level per gram of protein by GC-MS analysis (reference value: 47.7 ug); format: cell-based; conditions: Hepatocyte
T5 sequence (whole entry): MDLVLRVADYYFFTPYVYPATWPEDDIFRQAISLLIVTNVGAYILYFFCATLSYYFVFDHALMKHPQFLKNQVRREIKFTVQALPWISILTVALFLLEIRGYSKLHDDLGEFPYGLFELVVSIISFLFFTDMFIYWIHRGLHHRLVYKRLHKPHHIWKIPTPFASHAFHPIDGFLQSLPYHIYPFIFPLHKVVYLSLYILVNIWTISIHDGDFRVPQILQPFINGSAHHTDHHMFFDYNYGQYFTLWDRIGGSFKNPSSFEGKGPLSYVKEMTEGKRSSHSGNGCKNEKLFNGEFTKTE

[6] = molecular target: T3, 3-hydroxy-3-methylglutaryl-coenzyme A reductase (Homo sapiens); assay: Inhibition of HMGCR activity in human hepatocytes assessed as increase in desmosterol level per gram of protein by GC-MS analysis (reference value: 5.5 ug); format: cell-based; conditions: Hepatocyte
[7] = molecular target: T3, 3-hydroxy-3-methylglutaryl-coenzyme A reductase (Homo sapiens); assay: Inhibition of HMGCR activity in human hepatocytes assessed as increase in FF-MAS level per gram of protein by GC-MS analysis (reference value: 0.7 ug); format: cell-based; conditions: Hepatocyte
[8] = molecular target: T3, 3-hydroxy-3-methylglutaryl-coenzyme A reductase (Homo sapiens); assay: Inhibition of HMGCR activity in human hepatocytes assessed as increase in lathosterol level per gram of protein by GC-MS analysis (reference value: 47.7 ug); format: cell-based; conditions: Hepatocyte
[9] = molecular target: T3, 3-hydroxy-3-methylglutaryl-coenzyme A reductase (Homo sapiens); assay: Inhibition of HMGCR activity in human hepatocytes assessed as increase in 7-dehydrocholesterol level per gram of protein by GC-MS analysis (reference value: 16.3 ug); format: cell-based; conditions: Hepatocyte

Chain of Cytochrome P450 3A4 (P08684 whole entry): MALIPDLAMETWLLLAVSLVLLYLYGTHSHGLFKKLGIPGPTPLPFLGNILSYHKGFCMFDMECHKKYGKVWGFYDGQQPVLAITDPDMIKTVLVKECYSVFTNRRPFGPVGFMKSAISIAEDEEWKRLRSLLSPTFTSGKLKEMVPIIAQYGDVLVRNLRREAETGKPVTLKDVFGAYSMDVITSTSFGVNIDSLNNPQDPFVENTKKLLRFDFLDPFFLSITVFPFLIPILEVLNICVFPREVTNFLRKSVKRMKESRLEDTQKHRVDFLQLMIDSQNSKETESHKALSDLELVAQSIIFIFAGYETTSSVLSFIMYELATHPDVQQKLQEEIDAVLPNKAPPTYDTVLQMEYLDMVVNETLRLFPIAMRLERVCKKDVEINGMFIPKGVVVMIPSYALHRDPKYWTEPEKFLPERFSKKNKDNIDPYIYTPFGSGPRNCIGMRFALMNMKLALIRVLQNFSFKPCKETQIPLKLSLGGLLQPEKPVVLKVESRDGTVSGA

OC(CN1CCN(CCc2ccccc2)CC1)c1cccnc1 (stereo unspecified)
Activity (Cytochrome P450 3A4): Non-toxic | Activity [1]: 556 µg | Activity (Hepatocyte): Non-toxic | Activity [2]: 2.9 µg | Activity [3]: 76 pmol/min | Activity [4]: 10.1 µg | Activity [5]: 119 µg

CC(C)c1c(C(=O)Nc2ccccc2)c(-c2ccccc2)c(-c2ccc(F)cc2)n1CC[C@@H](O)C[C@@H](O)CC(=O)O
Activity [6]: 2.7 µg | Activity [7]: 0.3 µg | Activity [8]: 25.8 µg | Activity [9]: 15.8 µg
